From patent US12516016B2, “GPX4 inhibitors, pharmaceutical compositions thereof, and their use for treating GPX4-mediated diseases” (EUBULUS BIOTHERAPEUTICS (HONG KONG) LIMITED, priority 2020, dated 2026)

System: hepatocellular carcinoma cell line Hub-7
Test: Cell proliferation assay (CELL-TITER GLO cell viability)
Format: cell-based
Settings: 24 h, Hub-7 cells, 24 h incubation, read-out: Inhibition of Cell Proliferation EC50
In short: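 […] cells (4,000/well) seeded overnight, then exposed 24 h to compound from 10 μM in 3-fold serial dilutions. Viability read by CELL-TITER GLO luminescence; EC50 values derived.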

SMILES	EC50
C#CC(=O)N(c1cccc(Cl)c1)C1(C(=O)NCC(=O)N2CCCC(O)C2)CCOCC1 (stereo not drawn) [A183, 4-(N-(3-Chlorophenyl)propiolamido)-N-(2-(3-hydroxypiperidin-1-yl)-2-oxoethyl)tetrahydro-2H-pyran-4-carboxamide]	2000 to 10000 nM
C#CC(=O)N(c1cccc(Cl)c1)C1(C(=O)NCC(=O)N2CCCC(C(=O)OC)C2)CCOCC1 (stereo not drawn) [A184, Methyl 1-(2-(4-(N-(3-chlorophenyl)propiolamido)tetrahydro-2H-pyran-4-carboxamido)acetyl)piperidine-3-carboxylate]	100 to 500 nM
C#CC(=O)N(c1cccc(Cl)c1)C1(C(=O)NCC(=O)NCc2ccccc2O)CCOCC1 [A185, 4-(N-(3-Chlorophenyl)propiolamido)-N-(2-((2-hydroxybenzyl)amino)-2-oxoethyl)tetrahydro-2H-pyran-4-carboxamide]	100 to 500 nM
C#CC(=O)N(c1cccc(Cl)c1)C1(C(=O)NCC(=O)NCCO)CCOCC1 [A186, 4-(N-(3-Chlorophenyl)propiolamido)-N-(2-((2-hydroxyethyl)amino)-2-oxoethyl)-tetrahydro-2H-pyran-4-carboxamide]	2000 to 10000 nM
C#CC(=O)N(c1cccc(Cl)c1)C1(C(=O)NCC(=O)NCc2ccccc2Cl)CCOCC1 [A187, N-(2-((2-Chlorobenzyl)amino)-2-oxoethyl)-4-(N-(3-chlorophenyl)propiolamido)-tetrahydro-2H-pyran-4-carboxamide]	100 to 500 nM
C#CC(=O)N(c1cccc(Cl)c1)C1(C(=O)NCC(=O)NCc2ccccc2)CCOCC1 [A188, N-(2-(Benzylamino)-2-oxoethyl)-4-(N-(3-chlorophenyl)propiolamido)tetrahydro-2H-pyran-4-carboxamide]	100 to 500 nM
C#CC(=O)N(c1cccc(Cl)c1)C1(C(=O)NCC(=O)NCc2ccccc2C#N)CCOCC1 [A189, 4-(N-(3-Chlorophenyl)propiolamido)-N-(2-((2-cyanobenzyl)amino)-2-oxoethyl)-tetrahydro-2H-pyran-4-carboxamide]	100 to 500 nM
C#CC(=O)N(c1ccc(OC)cc1OC)C(C(=O)NCC(=O)OCC)c1cccs1 (stereo not drawn) [A190, Ethyl 2-(2-(N-(2,4-dimethoxyphenyl)propiolamido)-2-(thiophen-2-yl)acetamido)-acetate]	500 to 2000 nM
C#CC(=O)N(c1cccc(Cl)c1)C1(C(=O)NCC(=O)OCC)CCOCC1 [A191, Ethyl 2-(4-(N-(3-chlorophenyl)propiolamido)tetrahydro-2H-pyran-4-carboxamido)acetate]	500 to 2000 nM
C#CC(=O)N(c1cccc(Cl)c1)C1(C(=O)NCC(=O)O)CCOCC1 [A192, 2-(4-(N-(3-Chlorophenyl)propiolamido)tetrahydro-2H-pyran-4-carboxamido)-acetic acid]	> 10000 nM
C#CC(=O)N(c1cccc(Cl)c1)C1(C(=O)NCC(=O)Nc2ccccc2)CCOCC1 [A193, 4-(N-(3-Chlorophenyl)propiolamido)-N-(2-oxo-2-(phenylamino)ethyl)tetrahydro-2H-pyran-4-carboxamide]	100 to 500 nM
C#CC(=O)N(c1cccc(Cl)c1)C1(C(=O)NCC(=O)N2CCCC(CO)C2)CCOCC1 (stereo not drawn) [A194, 4-(N-(3-Chlorophenyl)propiolamido)-N-(2-(3-(hydroxymethyl)piperidin-1-yl)-2-oxoethyl)tetrahydro-2H-pyran-4-carboxamide]	2000 to 10000 nM
C[Si](C)(C)C#CC(=O)N(c1cccc(Cl)c1)C1(C(=O)NCc2cccc(Cl)c2)CCOCC1 [A195, N-(3-Chlorobenzyl)-4-(N-(3-chlorophenyl)-3-(trimethylsilyl)propiolamido)-tetrahydro-2H-pyran-4-carboxamide]	≤ 100 nM
C=CC(=O)N(c1ccc(OC)c(Cl)c1)C(C(=O)NCc1ccccc1)c1cccc(N)c1 (stereo not drawn) [B2, N-(2-(benzylamino)-1-(3-aminophenyl)-2-oxoethyl)-N-(3-chloro-4-methoxyphenyl)acrylamide]	> 10000 nM
C=C(F)C(=O)N(c1cccc(Cl)c1)C(C(=O)NCc1ccccc1)c1ccc(N)cc1 (stereo not drawn) [B3, N-(1-(4-Aminophenyl)-2-(benzylamino)-2-oxoethyl)-N-(3-chlorophenyl)-2-fluoroacrylamide]	> 10000 nM
